Bounds are passed on as bounds.

In one data set the test system is NCI-H292. Put plainly: Cytotoxic effects, MTT assay. The data set is classed as cell-based. The settings on record: Homo sapiens, 72 h incubation. How it is done:
The cells are cultivated by a standard method, as indicated in the […] (ATCC) for the respective cell lines.
At the end of the selected incubation time, the MTT reagent is incubated with the cells for 4 h, followed by lysis of the cells overnight by addition of the detergent. […] The proliferation of cells which were not treated with test substance but were otherwise identically treated was defined as the 100% figure.

Data set [1] has as its target T1, human kinesin spindle protein KSP/Eg5 (Homo sapiens, UniProt P52732).
T1 construct: The motor domain of the human kinesin spindle protein KSP/Eg5; purchased tebu-bio/Cytoskeleton Inc 027EG01-XL
T1 sequence (P52732 18-359 limits assumed): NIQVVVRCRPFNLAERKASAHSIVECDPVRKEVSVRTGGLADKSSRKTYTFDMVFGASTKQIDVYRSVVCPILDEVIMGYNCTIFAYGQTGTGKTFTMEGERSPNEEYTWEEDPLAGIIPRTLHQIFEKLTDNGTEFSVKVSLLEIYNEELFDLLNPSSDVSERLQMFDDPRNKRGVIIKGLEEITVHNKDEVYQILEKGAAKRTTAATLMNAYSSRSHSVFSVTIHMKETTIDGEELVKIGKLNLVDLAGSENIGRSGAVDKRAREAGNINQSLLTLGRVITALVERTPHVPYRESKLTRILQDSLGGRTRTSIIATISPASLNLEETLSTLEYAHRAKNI
Nature of the data set: Inhibition of the kinesin spindle protein KSP/Eg5 (ATPase, malachite green). The data set is classed as biochemical. The conditions noted are these: 10 nM KSP motor domain, 500 μM ATP, 2 h RT. As to the method:
C-1b Determination of the Inhibition of the Kinesin Spindle Protein KSP/Eg5 by Selected Examples
The motor domain of the human kinesin spindle protein KSP/Eg5 (from tebu-bio/Cytoskeleton Inc, No. 027EG01-XL) is incubated at a concentration of 10 nM with 50 μg/ml taxol- (from Sigma No. T7191-5MG) stabilized microtubuli (bovine or porcine, from tebu-bio/Cytoskeleton Inc) for 5 min at RT in 15 mM PIPES, pH 6.8 (5 mM MgCl2 and 10 mM DTT, from Sigma). The freshly prepared mixture is aliquoted into a 384-well MTP. The inhibitors to be examined at concentrations of 1.0×10^−6 M to 1.0×10^−13 and ATP (final concentration 500 μM, from Sigma) are then added. Incubation is at RT for 2 h. ATPase activity is detected by detecting the inorganic phosphate formed using malachite green (from Biomol). […] The individual data of the dose-activity curve are eight-fold determinations. The IC50 values are means of three independent experiments.

The nature of data set [2]: Cell permeability, flux assay using Caco-2 cells. The settings on record: human, Caco-2. How it is done:
C-3 In Vitro Tests for Determining Cell Permeability
The cell permeability of a substance can be investigated by means of in vitro testing in a flux assay using Caco-2 cells [M. D. Troutman and D. R. Thakker, Pharm. […] For this purpose, the cells were cultured for 15-16 days on 24-well filter plates. For the determination of permeation, the respective working example was applied in a HEPES buffer to the cells either apically (A) or basally (B) and incubated for 2 hours. After 0 hours and after 2 hours, samples were taken from the cis and trans compartments. The samples were separated by HPLC (Agilent 1200, Böblingen, Germany) using reverse phase columns.
Of critical importance for toxophores which are released intracellularly is the permeability from B to A [Papp(B-A)] and the ratio of Papp(B-A) to Papp(A-B) (efflux ratio): the lower this permeability, the slower the active and passive transport processes of the substance through the monolayer of Caco-2 cells.
Background: Passage across Caco-2 layers is used to estimate intestinal permeability.

As for `CC(C)(C)[C@@H](c1cc(-c2cc(F)ccc2F)cn1Cc1ccccc1)N(CCCN)C(=O)CO` [Example 102, N-(3-Aminopropyl)-N-{(1S)-1-[1-benzyl-4-(2,5-difluorophenyl)-1H-pyrrol-2-yl]-2,2-dimethylpropyl}-2-hydroxyacetamide], the half-maximal inhibitory concentration (IC50) in the data set with NCI-H292 is 32.9 nM; in data set [1] it was 4.7 nM.
As to `CC(C)(C)[C@H](c1cc(-c2cc(F)ccc2F)cn1Cc1ccccc1)N(CC[C@H](N)C(=O)NCCC(=O)NCCCC[C@H](N)C(=O)O)C(=O)CO.O=C(O)C(F)(F)F` [Example 162, N^6-(N-(2S)-2-Amino-4-[{(1R)-1-[1-benzyl-4-(2,5-difluorophenyl)-1H-pyrrol-2-yl]-2,2-dimethylpropyl (glycoloyl)amino]butanoyl}-beta-alanyl)-L-lysine/trifluoroacetic acid (1:1)], the Papp B→A at 2 h in data set [2] is 0.2 ×10⁻⁶ cm/s. The same compound had an IC50 in the data set on NCI-H292 of 121 nM.
The corresponding values for `CC(C)(C)[C@H](c1cc(-c2cc(F)ccc2F)cn1Cc1ccccc1)N(CC[C@H](N)C(=O)NCCNC(=O)CC[C@H](N)C(=O)O)C(=O)CO.O=C(O)C(F)(F)F` [Example 161, N-[2-({(2S)-2-Amino-4-[{(1R)-1-[1-benzyl-4-(2,5-difluorophenyl)-1H-pyrrol-2-yl]-2,2-dimethylpropyl}(glycoloyl)amino]butanoyl}amino)ethyl]-L-glutamine/trifluoroacetic acid (1:1)] are 0.16 ×10⁻⁶ cm/s and 35.5 nM.
`C[C@H](O)C(=O)N(CCCN)[C@@H](c1cc(-c2cc(F)ccc2F)cn1Cc1ccccc1)C(C)(C)C` [Example 221, Trifluoroacetic acid/(2S)—N-(3-aminopropyl)-N-{(1R)-1-[1-benzyl-4-(2,5-difluorophenyl)-1H-pyrrol-2-yl]-2,2-dimethylpropyl}-2-hydroxypropanamide (1:1)]: the concentration for half-maximal inhibition (IC50) in the data set on NCI-H292 came out at 0.1 nM; in data set [1], 0.112 nM.
For the compound `COC(=O)CCC(=O)N(CCCN)[C@@H](c1cc(-c2cc(F)ccc2F)cn1Cc1ccccc1)C(C)(C)C` [Example 224, Trifluoroacetic acid/methyl 4-[(3-aminopropyl){(1R)-1-[1-benzyl-4-(2,5-difluorophenyl)-1H-pyrrol-2-yl]-2,2-dimethylpropyl}amino]-4-oxobutanoate (1:1)], the IC50 was determined as 0.00337 nM in the data set with NCI-H292 and 0.196 nM in data set [1].
In the case of `CC(C)(C)[C@H](c1cc(-c2cc(F)ccc2F)cn1Cc1ccccc1)N(CCCN)C(=O)c1ccc(C(F)(F)F)cc1` [Example 189, N-(3-aminopropyl)-N-{(1R)-1-[1-benzyl-4-(2,5-difluorophenyl)-1H-pyrrol-2-yl]-2,2-dimethylpropyl}-4-(trifluoromethyl)benzamide], the half-maximal inhibitory concentration (IC50) in the data set on NCI-H292 was found to be 8.76 nM; in data set [1], 11.2 nM.
Consider `C[C@H](O)C(=O)N(CCCN)[C@@H](c1nn(-c2cc(F)ccc2F)cc1Cc1ccccc1)C(C)(C)C` [Example 223, Trifluoroacetic acid/(2S)—N-(3-aminopropyl)-N-{(1R)-1-[4-benzyl-1-(2,5-difluorophenyl)-1H-pyrazol-3-yl]-2,2-dimethylpropyl}-2-hydroxypropanamide (1:1)], for which the IC50 is 0.0077 nM in the data set with NCI-H292 and 0.289 nM in data set [1].
Take `CC(C)(C)[C@H](c1cc(-c2cc(F)ccc2F)cn1Cc1ccccc1)N(CCCN)C(=O)CSCCC(=O)O` [Example 231, 3-({2-[(3-Aminopropyl){(1R)-1-[1-benzyl-4-(2,5-difluorophenyl)-1H-pyrrol-2-yl]-2,2-dimethylpropyl}amino]-2-oxoethyl}sulphanyl)propanoic acid/trifluoroacetic acid (1:1)]: the half-inhibitory concentration (IC50) with NCI-H292 was 0.918 nM; in data set [1], 1.67 nM.
Take `CC(C)(C)[C@H](c1cc(-c2cc(F)ccc2F)cn1Cc1ccccc1)N(CC[C@H](N)C(=O)NCCNC(=O)CN1C(=O)CC(SC[C@H](N)C(=O)O)C1=O)C(=O)CO.O=C(O)C(F)(F)F` (stereo partly drawn) [Example 135, S-[1-(2-{[2-({(2S)-2-Amino-4-[{(1R)-1-[1-benzyl-4-(2,5-difluorophenyl)-1H-pyrrol-2-yl]-2,2-dimethylpropyl}(glycoloyl)amino]butanoyl}amino)ethyl]amino}-2-oxoethyl)-2,5-dioxopyrrolidin-3-yl]-L-cysteine/trifluoroacetic acid (1:1)]: in data set [2], the Papp B→A at 2 h was found to be 0.78 ×10⁻⁶ cm/s and the efflux ratio at 2 h was found to be 4. For the same compound, the IC50 with NCI-H292 was at least 500 nM.
In turn, `CC(C)(C)[C@H](c1cc(-c2cc(F)ccc2F)cn1Cc1ccccc1)N(CC[C@H](N)C(=O)O)C(=O)CO.Cl` [Example 197, (2S)-2-Amino-4-[{(1R)-1-[1-benzyl-4-(2,5-difluorophenyl)-1H-pyrrol-2-yl]-2,2-dimethylpropyl}(glycoloyl)amino]butanoic acid hydrochloride (1:1)] had an apparent permeability from basolateral to apical (Papp B→A) at 2 h in data set [2] of 9.3 ×10⁻⁶ cm/s. The 50% inhibitory concentration (IC50) in the data set on NCI-H292 stood at 7.35 nM.
Turning to `CNC(=O)[C@@H](N)CCN(C(=O)CO)[C@@H](c1cc(-c2cc(F)ccc2F)cn1Cc1ccccc1)C(C)(C)C.O=C(O)C(F)(F)F` [Example 99, Trifluoroacetic acid/(2S)-2-amino-4-[{(1R)-1-[1-benzyl-4-(2,5-difluorophenyl)-1H-pyrrol-2-yl]-2,2-dimethylpropyl}(glycoloyl)amino]-N-methylbutanamide (1:1)], in data set [2], the apparent permeability from basolateral to apical (Papp B→A) at 2 h amounted to 30.3 ×10⁻⁶ cm/s and the efflux ratio at 2 h is 8.7. This compound also had an IC50 in the data set with NCI-H292 of 0.851 nM.
In the same order, the values of `CC(C)(C)[C@H](c1cc(-c2cc(F)ccc2F)cn1Cc1ccccc1)N(CCCN)C(=O)CSCCC(NC(=O)CCOCCOCCOCCOCCNC(=O)CCN1C(=O)CC(SC[C@H](N)C(=O)O)C1=O)C(=O)O.O=C(O)C(F)(F)F` (mixture of isomers) [Example 138, N-[19-(3(R/S)-{[(2R)-2-amino-2-carboxyethyl]sulphanyl}-2,5-dioxopyrrolidin-1-yl)-17-oxo-4,7,10,13-tetraoxa-16-azanonadecan-1-oyl]-R/S-{2-[(3-aminopropyl){(1R)-1-[1-benzyl-4-(2,5-difluorophenyl)-1H-pyrrol-2-yl]-2,2-dimethylpropyl}amino]-2-oxoethyl}homocysteine/trifluoroacetic acid (1:1)] are 0.17 ×10⁻⁶ cm/s, 1.6 and at least 500 nM.
Regarding `CC(C)(C)[C@H](c1cc(-c2cc(F)ccc2F)cn1Cc1ccccc1)N(CC[C@H](N)C(=O)NCCNC(=O)CSC[C@H](N)C(=O)O)C(=O)CO.O=C(O)C(F)(F)F` [Example 158, S-(2-{[2-({(2S)-2-Amino-4-[{(1R)-1-[1-benzyl-4-(2,5-difluorophenyl)-1H-pyrrol-2-yl]-2,2-dimethylpropyl}(glycoloyl)amino]butanoyl}amino)ethyl]amino}-2-oxoethyl)-L-cysteine/trifluoroacetic acid (1:1)], in data set [2], the Papp B→A at 2 h was 0.56 ×10⁻⁶ cm/s and the efflux ratio at 2 h is 2.2. This compound gave a half-inhibitory concentration (IC50) in the data set on NCI-H292 of 22.2 nM.
As to `CC(C)(C)[C@H](c1nc(-c2cc(F)ccc2F)cn1Cc1ccccc1)N(CC[C@H](N)C(=O)NCCCC[C@H](N)C(=O)O)C(=O)CO.O=C(O)C(F)(F)F` [Example 59, N^6-{(2S)-2-Amino-4-[{(1R)-1-[1-benzyl-4-(2,5-difluorophenyl)-1H-imidazol-2-yl]-2,2-dimethylpropyl}(glycoloyl)amino]butanoyl}-L-lysine trifluoroacetic acid (1:1)], in data set [2], the apparent permeability from basolateral to apical (Papp B→A) at 2 h stood at 2.2 ×10⁻⁶ cm/s and the efflux ratio at 2 h is 4.8. This compound also returned a 50% inhibitory concentration (IC50) in data set [1] of 4.27 nM.
For the compound `CC(C)(C)[C@H](c1nc(-c2cc(F)ccc2F)cn1Cc1ccccc1)N(CC[C@H](N)C(=O)NCCN)C(=O)CO.O=C(O)C(F)(F)F.O=C(O)C(F)(F)F` [Example 80, Trifluoroacetic acid/(2S)-2-amino-N-(2-aminoethyl)-4-[{(1R)-1-[1-benzyl-4-(2,5-difluorophenyl)-1H-imidazol-2-yl]-2,2-dimethylpropyl}(glycoloyl)amino]butanamide (2:1)], in data set [2], the Papp B→A at 2 h came to 20 ×10⁻⁶ cm/s and the efflux ratio at 2 h is 22. In data set [1], this compound registered a half-inhibitory concentration (IC50) of 3.72 nM.

As usually defined, the IC50 is the point on the concentration scale where inhibition reaches its midpoint. Read a high IC50 as a need for much substance. Usually Papp B→A stands for how fast a substance crosses the layer from the basolateral side. Broadly, the efflux ratio is the permeability from basolateral to apical divided by that in the opposite direction, in the common usage.

The record behind these values is patent publication US10022453B2 (BAYER PHARMA AKTIENGESELLSCHAFT, priority 2013, dated 2018).
